{
  "source": "ChEMBL document CHEMBL3352658",
  "about": "(Eur J Med Chem, 2014)",
  "key": {"Tumor necrosis factor [1]": {"molecular_target": "T1, Tumor necrosis factor (Homo sapiens, UniProt P01375)", "T1 sequence (P01375 whole entry, the tested form may be a part)": "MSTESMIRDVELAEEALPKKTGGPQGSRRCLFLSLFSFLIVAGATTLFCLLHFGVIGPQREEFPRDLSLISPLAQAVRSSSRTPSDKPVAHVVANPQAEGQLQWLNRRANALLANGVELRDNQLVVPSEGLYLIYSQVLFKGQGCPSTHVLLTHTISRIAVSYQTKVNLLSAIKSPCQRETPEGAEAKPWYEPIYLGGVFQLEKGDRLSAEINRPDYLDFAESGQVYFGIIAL", "test": "Inhibition of recombinant human TNFalpha binding to TNF receptor 1-ECD at 100 uM by surface plasmon resonance-based in vitro competitive binding assay"}, "Tumor necrosis factor [2]": {"molecular_target": "T1, Tumor necrosis factor", "test": "Inhibition of TNFalpha in HEK293T cells transfected with plasmid hRluc/TK/ luc2P/NF-kBRE/Hygro plasmid at 90 uM after 12 hrs by Dual-glo luciferase assay system", "type": "cell-based", "conditions": "HEK-293T; call rule not given here"}, "Tumor necrosis factor [3]": {"molecular_target": "T1, Tumor necrosis factor", "test": "Inhibition of TNFalpha in HEK293T cells transfected with plasmid hRluc/TK/ luc2P/NF-kBRE/Hygro plasmid after 12 hrs by Dual-glo luciferase assay system", "type": "cell-based, HEK-293T"}, "Tumor necrosis factor [4]": {"molecular_target": "T1, Tumor necrosis factor", "test": "Inhibition of TNFalpha (unknown origin) assessed as IkappaB-alpha phosphorylation in Hela cells after 15 mins by ELISA", "type": "cell-based"}, "Tumor necrosis factor [5]": {"molecular_target": "T1, Tumor necrosis factor", "test": "Inhibition of TNFalpha in HEK293T cells transfected with plasmid hRluc/TK/ luc2P/NF-kBRE/Hygro plasmid at 30 uM after 12 hrs by Dual-glo luciferase assay system", "type": "cell-based", "conditions": "HEK-293T"}},
  "data": [
    {"compound": "COc1ccc(C2Nc3ccccc3-c3nnc(SCc4ccccc4Cl)nc3O2)cc1C", "note": "(stereo not drawn)", "values": [
      {"measurement": "inhibition", "setting": "Tumor necrosis factor [1]", "result": 32, "unit": "%"}
    ]},
    {"compound": "CCOc1cc(/C=C2\\C(=O)Nc3ccc(Br)cc32)cc(Cl)c1O", "values": [
      {"measurement": "inhibition", "setting": "Tumor necrosis factor [1]", "result": 24, "unit": "%"},
      {"measurement": "inhibition", "setting": "Tumor necrosis factor [2]", "result": 40, "unit": "%"}
    ]},
    {"compound": "Cc1ccc(C(=O)C2=C(O)C(=O)N(c3cccc(C(F)(F)F)c3)C2c2ccccc2[N+](=O)[O-])cc1", "note": "(stereo not drawn)", "values": [
      {"measurement": "inhibition", "setting": "Tumor necrosis factor [1]", "result": 26, "unit": "%"}
    ]},
    {"compound": "N#CC1=C(N)Oc2n[nH]c(-c3ccccc3)c2C1c1ccc(OCC(N)=O)cc1", "note": "(stereo not drawn)", "values": [
      {"measurement": "inhibition", "setting": "Tumor necrosis factor [1]", "result": 20, "unit": "%"}
    ]},
    {"compound": "CCc1nnc(NC(=O)CSc2nnc(-c3ccc([N+](=O)[O-])cc3)n2-c2ccc(C)cc2)s1", "values": [
      {"measurement": "inhibition", "setting": "Tumor necrosis factor [1]", "result": 35, "unit": "%"}
    ]},
    {"compound": "O=C1Sc2c(S(=O)(=O)Nc3ccc(O)cc3)cc(S(=O)(=O)Nc3ccc(O)cc3)c3cccc1c23", "values": [
      {"measurement": "inhibition", "setting": "Tumor necrosis factor [1]", "result": 52, "unit": "%"},
      {"measurement": "IC50", "setting": "Tumor necrosis factor [3]; read-out: IC50", "result": 14, "unit": "µM"},
      {"measurement": "IC50", "setting": "Tumor necrosis factor [4]", "result": 25.3, "unit": "µM"}
    ]},
    {"compound": "COC(=O)[C@@](NNc1ccc(C)c(C)c1)(NC(=O)c1ccc(Cl)cc1Cl)C(F)(F)F", "values": [
      {"measurement": "inhibition", "setting": "Tumor necrosis factor [1]", "result": 17, "unit": "%"}
    ]},
    {"compound": "O=C1Nc2ccc(S(=O)(=O)Nc3ccc(O)c(Cl)c3)c3cccc1c23", "values": [
      {"measurement": "inhibition", "setting": "Tumor necrosis factor [1]", "result": 28, "unit": "%"},
      {"measurement": "IC50", "setting": "Tumor necrosis factor [3]; read-out: IC50", "result": 42.3, "unit": "µM"},
      {"measurement": "IC50", "setting": "Tumor necrosis factor [4]", "result": 45.7, "unit": "µM"}
    ]},
    {"compound": "O=C(O)CCCNS(=O)(=O)c1ccc2c3c(cccc13)C(=O)N2", "values": [
      {"measurement": "IC50", "setting": "Tumor necrosis factor [3]; hek-293t", "result": "Not Active"}
    ]},
    {"compound": "Cc1cccc(/N=C2/NC(=O)/C(=C/c3cc(C)n(-c4cc(C(=O)O)cc(C(=O)O)c4)c3C)S2)c1C", "values": [
      {"measurement": "inhibition", "setting": "Tumor necrosis factor [1]", "result": 32, "unit": "%"}
    ]},
    {"compound": "O=S(=O)(Nc1ccc(O)c(Cl)c1)c1ccc(F)cc1", "values": [
      {"measurement": "inhibition", "setting": "Tumor necrosis factor [1]", "result": 31, "unit": "%"},
      {"measurement": "inhibition", "setting": "Tumor necrosis factor [5]", "result": 30, "unit": "%"},
      {"measurement": "IC50", "setting": "Tumor necrosis factor [3]; read-out: IC50", "result": "> 100", "unit": "µM"}
    ]},
    {"compound": "CC(=O)Oc1ccc(C)cc1N1C(=O)c2cccc([N+](=O)[O-])c2C1=O", "values": [
      {"measurement": "inhibition", "setting": "Tumor necrosis factor [1]", "result": 68, "unit": "%"}
    ]},
    {"compound": "O=S(=O)(Nc1cc(Cl)c(O)c(Cl)c1)c1ccc2ccccc2c1", "values": [
      {"measurement": "inhibition", "setting": "Tumor necrosis factor [1]", "result": 37, "unit": "%"},
      {"measurement": "inhibition", "setting": "Tumor necrosis factor [5]", "result": 30, "unit": "%"},
      {"measurement": "IC50", "setting": "Tumor necrosis factor [3]; read-out: IC50", "result": "> 100", "unit": "µM"}
    ]},
    {"compound": "CCOc1cc(C2NC(=O)NC(c3ccccc3)=C2C(C)=O)c(Br)c(Br)c1OCC(N)=O", "note": "(stereo not drawn)", "values": [
      {"measurement": "inhibition", "setting": "Tumor necrosis factor [1]", "result": 16, "unit": "%"}
    ]}
  ]
}
